Assay results published in patent US20230055237A1, “COMPOUNDS AND METHODS FOR THE TREATMENT OF CYSTIC FIBROSIS” (Flatley Discovery Lab, LLC, priority 2019, published 2023).

Target: T1, CFTR (Homo sapiens, UniProt P13569, DEL508-508)
T1 construct: Primary CF airway epithelial cells were obtained from the UNC Cystic Fibrosis Tissue Procurement and Cell Culture Core; host or cells: primary CF airway epithelial cells, differentiated at the air-liquid interface
Assay: Equivalent current assay in primary CF airway epithelial cells (NAUC, combination with 1st site corrector FDL169 or VX-809)
Type: cell-based
Conditions: 37° C., 24 h

[1] = test compound 3 μM in combination with 1st site corrector VX-809 (3 μM)
[2] = test compound 10 μM in combination with 1st site corrector VX-809 (3 μM)
[3] = test compound 1 μM in combination with 1st site corrector VX-809 (3 μM)
[4] = test compound 1 μM in combination with 1st site corrector FDL169 (3 μM)
[5] = test compound 3 μM in combination with 1st site corrector FDL169 (3 μM)

T1 sequence (P13569 with tags, fused parts or gaps DEL508-508): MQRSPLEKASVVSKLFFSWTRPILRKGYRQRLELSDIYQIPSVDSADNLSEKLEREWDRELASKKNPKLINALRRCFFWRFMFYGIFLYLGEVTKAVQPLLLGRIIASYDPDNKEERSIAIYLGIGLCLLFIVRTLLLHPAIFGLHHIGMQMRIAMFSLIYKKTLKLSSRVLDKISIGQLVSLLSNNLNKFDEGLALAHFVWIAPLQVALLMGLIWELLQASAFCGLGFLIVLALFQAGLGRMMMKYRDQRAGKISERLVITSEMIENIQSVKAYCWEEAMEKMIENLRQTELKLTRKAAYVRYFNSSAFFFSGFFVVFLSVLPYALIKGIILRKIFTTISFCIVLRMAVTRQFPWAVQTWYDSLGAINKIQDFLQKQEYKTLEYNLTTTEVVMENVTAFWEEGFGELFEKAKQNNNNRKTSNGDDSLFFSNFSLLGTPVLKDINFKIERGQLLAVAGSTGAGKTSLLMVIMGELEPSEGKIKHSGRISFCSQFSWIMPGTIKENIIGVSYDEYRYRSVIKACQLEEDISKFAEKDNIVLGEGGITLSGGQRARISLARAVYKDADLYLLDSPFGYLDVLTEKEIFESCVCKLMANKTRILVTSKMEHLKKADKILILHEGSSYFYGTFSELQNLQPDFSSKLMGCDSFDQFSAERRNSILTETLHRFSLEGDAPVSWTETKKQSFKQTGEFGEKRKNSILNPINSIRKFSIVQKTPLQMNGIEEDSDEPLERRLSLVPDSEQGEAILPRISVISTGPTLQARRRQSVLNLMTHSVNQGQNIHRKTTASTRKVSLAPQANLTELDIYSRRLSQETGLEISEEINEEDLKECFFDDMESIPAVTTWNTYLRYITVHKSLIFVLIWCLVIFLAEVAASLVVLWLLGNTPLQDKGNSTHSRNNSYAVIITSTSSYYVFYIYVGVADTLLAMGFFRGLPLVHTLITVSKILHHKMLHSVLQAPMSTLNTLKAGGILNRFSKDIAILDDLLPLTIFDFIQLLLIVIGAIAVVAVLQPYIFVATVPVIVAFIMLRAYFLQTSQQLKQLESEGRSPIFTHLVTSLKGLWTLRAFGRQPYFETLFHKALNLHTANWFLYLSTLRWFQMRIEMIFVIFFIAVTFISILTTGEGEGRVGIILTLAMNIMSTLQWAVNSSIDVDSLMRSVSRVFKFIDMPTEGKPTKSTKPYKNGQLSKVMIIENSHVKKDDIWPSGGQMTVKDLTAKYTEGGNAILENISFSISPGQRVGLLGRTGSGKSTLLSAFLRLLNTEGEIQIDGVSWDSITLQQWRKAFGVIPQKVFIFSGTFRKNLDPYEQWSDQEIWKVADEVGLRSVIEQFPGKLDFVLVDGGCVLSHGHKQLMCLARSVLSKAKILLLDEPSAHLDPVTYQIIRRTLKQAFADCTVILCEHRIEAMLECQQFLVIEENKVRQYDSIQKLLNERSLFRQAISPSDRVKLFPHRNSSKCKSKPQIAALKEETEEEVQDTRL

| SMILES | Nauc @ 3 μM [1] | Nauc @ 10 μM [2] | Nauc @ 1 μM [3] | Nauc @ 1 μM [4] | Nauc @ 3 μM [5] | Nauc @ 10 μM (test compound 10 μM in combination with 1st site corrector FDL169 (3 μM)) |
| --- | --- | --- | --- | --- | --- | --- |
| O=C(Nc1cc(Cl)cc(Cl)c1)C1C2CCCN2C2(C(=O)Nc3c(Cl)cc(Cl)cc32)C1C(=O)O (stereo not drawn) [Example 15] | +++ (NAUC “+++” refers to an observed NAUC>170% of positive control) | +++ (NAUC “+++” refers to an observed NAUC>170% of positive control) | – | – | – | – |
| O=C(Nc1cc(Cl)cc(Cl)c1)[C@H]1[C@H]2CCCN2[C@]2(C(=O)Nc3c(Cl)cc(Cl)cc32)[C@H]1C(=O)NN1CCOCC1 (relative stereo) [Example 243, (1′R,2′S,7a′R)-5,7-dichloro-N1′-(3,5-dichlorophenyl)-N2′-morpholino-2-oxo-1′,2′,5′,6′,7′,7a′-hexahydrospiro dicarboxamide] | + (NAUC “+” refers to an observed NAUC <140% of positive control) | – | + (NAUC “+” refers to an observed NAUC <140% of positive control) | – | – | – |
| Cn1ccc(NC(=O)[C@H]2[C@@H](C(=O)Nc3cc(Cl)cc(Cl)c3)[C@H]3CCCN3[C@]23C(=O)Nc2c(Cl)cc(Cl)cc23)n1 (single isomer, unassigned) [Example 240, (1′R,2′S,7a′R)-5,7-dichloro-N1′-(3,5-dichlorophenyl)-N2′-(1-methyl-1H-pyrazol-3-yl)-2-oxo-1′,2′,5′,6′,7′,7a′-hexahydrospiro[indoline-3,3′-pyrrolizine]-1′,2′-dicarboxamide] | + (NAUC “+” refers to an observed NAUC <140% of positive control) | + (NAUC “+” refers to an observed NAUC <140% of positive control) | + (NAUC “+” refers to an observed NAUC <140% of positive control) | – | – | – |
| O=C(O)[C@H]1[C@@H](C(=O)N(c2cc(Cl)cc(Cl)c2)C2CC2)[C@H]2CC(F)(F)CN2[C@]12C(=O)Nc1c(Cl)cc(Cl)cc12 [Example 116] | +++ (NAUC “+++” refers to an observed NAUC>170% of positive control) | ++ (NAUC “++” refers to an observed NAUC 170-140% of positive control) | +++ (NAUC “+++” refers to an observed NAUC>170% of positive control) | – | – | – |
| O=C(Nc1cc2ccccc2cn1)[C@H]1[C@H]2CC(F)(F)CN2[C@]2(C(=O)Nc3c(Cl)cc(Cl)cc32)[C@H]1C(=O)O [Example 119] | + (NAUC “+” refers to an observed NAUC <140% of positive control) | + (NAUC “+” refers to an observed NAUC <140% of positive control) | + (NAUC “+” refers to an observed NAUC <140% of positive control) | – | – | – |
| CCCN(C(=O)[C@H]1[C@H]2CC(F)(F)CN2[C@]2(C(=O)Nc3c(Cl)cc(Cl)cc32)[C@H]1C(=O)O)c1cc(Cl)cc(Cl)c1 [Example 172] | – | – | – | +++ (NAUC “+++” refers to an observed NAUC>170% of positive control) | +++ (NAUC “+++” refers to an observed NAUC>170% of positive control) | +++ (NAUC “+++” refers to an observed NAUC>170% of positive control) |
| COc1c(Cl)cc(NC(=O)C2C3CC(C)(C)CN3C3(C(=O)Nc4c(Cl)cc(Cl)cc43)C2C(=O)O)cc1Cl (stereo not drawn) [Example 14] | +++ (NAUC “+++” refers to an observed NAUC>170% of positive control) | +++ (NAUC “+++” refers to an observed NAUC>170% of positive control) | – | – | – | – |
| O=C(O)[C@H]1[C@@H](C(=O)N(CC2CC2)c2cc(Cl)cc(Cl)c2)[C@@H](C(F)(F)F)NC12C(=O)Nc1c(Cl)cc(Cl)cc12 (single isomer, unassigned) [Example 270b] | – | – | – | + (NAUC “+” refers to an observed NAUC <140% of positive control) | ++ (NAUC “++” refers to an observed NAUC 170-140% of positive control) | – |
| CCN(C(=O)[C@H]1[C@H]2CC(F)(F)CN2C2(C(=O)Nc3c(Cl)cc(Cl)cc32)[C@H]1C(=O)O)c1cc(Cl)cc(Cl)c1 (stereo partly drawn) [Example 289] | +++ (NAUC “+++” refers to an observed NAUC>170% of positive control) | +++ (NAUC “+++” refers to an observed NAUC>170% of positive control) | +++ (NAUC “+++” refers to an observed NAUC>170% of positive control) | – | – | – |
| O=C(Nc1cc(Cl)cc(Cl)c1)C1C(C(=O)O)C(c2cc(Cl)cc(Cl)c2)N2CCCC12 (stereo not drawn) [Example 27] | ++ (NAUC “++” refers to an observed NAUC 170-140% of positive control) | ++ (NAUC “++” refers to an observed NAUC 170-140% of positive control) | – | – | – | – |
| COC(=O)[C@@]1(C)[C@@H](C(=O)N(C)c2cc(Cl)cc(Cl)c2)[C@H]2CC(F)(F)CN2C12C(=O)Nc1c(Cl)cc(Cl)cc12 (stereo partly drawn) [Example 282] | – | – | – | + (NAUC “+” refers to an observed NAUC <140% of positive control) | + (NAUC “+” refers to an observed NAUC <140% of positive control) | – |
| CCC(=O)N1C(C(C)C)C(C(=O)Nc2cc(Cl)cc(Cl)c2)C(C(=O)O)C12C(=O)Nc1c(Cl)cc(Cl)cc12 (stereo not drawn) [Example 26] | ++ (NAUC “++” refers to an observed NAUC 170-140% of positive control) | +++ (NAUC “+++” refers to an observed NAUC>170% of positive control) | – | – | – | – |
| O=C(Nc1cc(Cl)cc(Cl)c1)C1C(C(F)(F)c2ccccc2C(F)(F)F)NC2(C(=O)Nc3c(Cl)cc(Cl)cc32)C1C(=O)O (stereo not drawn) [Example 69.a] | – | + (NAUC “+” refers to an observed NAUC <140% of positive control) | – | – | – | – |
| CN(C(=O)[C@H]1[C@H]2CCCCN2[C@]2(C(=O)Nc3c(Cl)cc(Cl)cc32)[C@H]1C(=O)O)c1cc(Cl)cc(Cl)c1 (racemic) [Example 219, rac-(1′R,2′S,3R,8a′R)-5,7-dichloro-1′-((3,5-dichlorophenyl)(methyl)carbamoyl)-2-oxo-1′,5′,6′,7′,8′,8a′-hexahydro-2′H-spiro[indoline-3,3′-indolizine]-2′-carboxylic acid] | – | – | – | ++ (NAUC “++” refers to an observed NAUC 170-140% of positive control) | + (NAUC “+” refers to an observed NAUC <140% of positive control) | – |
| O=C1C2C(C(F)(F)F)NC3(C(=O)Nc4c(Cl)cc(Cl)cc43)C2C(=O)N1c1cc(Cl)cc(Cl)c1 (single isomer, unassigned) [Example 81, 5,7-dichloro-4′4(3,5-dichlorophenyl)carbamoyl)-1-methyl-2-oxo-5′-(trifluoromethyl)spiro[indoline-3,2′-pyrrolidinel-3′-carboxylic acid] | ++ (NAUC “++” refers to an observed NAUC 170-140% of positive control) | + (NAUC “+” refers to an observed NAUC <140% of positive control) | + (NAUC “+” refers to an observed NAUC <140% of positive control) | – | – | – |
| CN(C(=O)[C@H]1[C@H]2CC(F)(F)CN2[C@]2(C(=O)Nc3c(Cl)cc(Cl)cc32)[C@H]1C(=O)OCOC(=O)C(C)(C)C)c1cc(Cl)cc(Cl)c1 (racemic) [Example 251a, rac-(pivaloyloxy)methyl (1′R,2′S,3R,7a′R)-5,7-dichloro-1-((3,5-dichlorophenyl)(methyl)carbamoyl)-6′,6′-difluoro-2-oxo-1′,2′,5′,6′,7′,7a′-hexahydrospiro[indoline-3,3′-pyrrolizine]-2′-carboxylate] | – | + (NAUC “+” refers to an observed NAUC <140% of positive control) | – | – | – | – |
| O=C(O)[C@H]1[C@@H](C(=O)N(CC2CCCC2)c2cccc(C(F)(F)F)c2)[C@H]2CC(F)(F)CN2[C@]12C(=O)Nc1c(Cl)cc(Cl)cc12 [Example 181] | – | – | – | ++ (NAUC “++” refers to an observed NAUC 170-140% of positive control) | +++ (NAUC “+++” refers to an observed NAUC>170% of positive control) | – |
| O=C(Nc1cc(Cl)cc(Cl)c1)C1C2CC(F)(F)CN2C2(C(=O)Nc3c(Cl)cc(Cl)cc32)C1C(=O)O (stereo not drawn) [Example 7] | – | +++ (NAUC “+++” refers to an observed NAUC>170% of positive control) | – | – | – | – |
| O=C(Nc1cc(Cl)cc(Cl)c1)C1C(COCc2ccccc2)NC2(C(=O)Nc3c(Cl)cc(Cl)cc32)C1C(=O)O (stereo not drawn) [Example 32] | +++ (NAUC “+++” refers to an observed NAUC>170% of positive control) | +++ (NAUC “+++” refers to an observed NAUC>170% of positive control) | – | – | – | – |
| O=C(Nc1cc(Cl)cc(Cl)c1)C1C2CCCN2C2(C(=O)Nc3c(Cl)cc(Cl)cc32)C1C(=O)NO (single isomer, unassigned) [Example 234b, 5,7-dichloro-N1′-(3,5-dichlorophenyl)-N2′-hydroxy-2-oxo-1′,2′,5′,6′,7′,7a′-hexahydrospiro[indoline-3,3′-pyrrolizine]-1,2′-dicarboxamide] | ++ (NAUC “++” refers to an observed NAUC 170-140% of positive control) | +++ (NAUC “+++” refers to an observed NAUC>170% of positive control) | + (NAUC “+” refers to an observed NAUC <140% of positive control) | – | – | – |
| O=C(Nc1ccc(O)cc1)C1C2CC(F)(F)CN2C2(C(=O)Nc3c(Cl)cc(Cl)cc32)C1C(=O)O (stereo not drawn) [Example 77.a] | – | + (NAUC “+” refers to an observed NAUC <140% of positive control) | – | – | – | – |
| O=C(Nc1cc(Cl)cc(Cl)c1)C1C(C(F)(F)F)NC2(C(=O)Nc3c(Cl)cc(Cl)cc32)C1C(=O)O (stereo not drawn) [Example 40] | +++ (NAUC “+++” refers to an observed NAUC>170% of positive control) | +++ (NAUC “+++” refers to an observed NAUC>170% of positive control) | – | – | – | – |
| O=C(Nc1cncc(C(F)(F)F)n1)C1C2CC3(CC3)CN2C2(C(=O)Nc3c(Cl)cc(Cl)cc32)C1C(=O)O (stereo not drawn) [Example 2] | + (NAUC “+” refers to an observed NAUC <140% of positive control) | ++ (NAUC “++” refers to an observed NAUC 170-140% of positive control) | – | – | – | – |
| O=C(Nc1cc(Cl)cc(Cl)c1F)C1C2CC(F)(F)CN2C2(C(=O)Nc3c(Cl)cc(Cl)cc32)C1C(=O)O (stereo not drawn) [Example 42] | +++ (NAUC “+++” refers to an observed NAUC>170% of positive control) | +++ (NAUC “+++” refers to an observed NAUC>170% of positive control) | – | – | – | – |
